Data set [1] is described as follows: Particle size distribution measurement by laser diffraction. In kind it is physicochemical. To be noted: milled active substance. An excerpt:
The value X90 refers to the 90% value of the volume distribution measured using a laser diffractometer. In other words, for the purposes of the present invention, the X90 value denotes the particle size below which 90% of the quantity of particles is found based on the volume distribution. Analogously the value X50 refers to the 50% value (median) of the volume distribution measured using a laser diffractometer. In other words, for the purposes of the present invention, the X50 value denotes the particle size below which 50% of the quantity of particles is found based on the volume distribution. Analogously the value X10 refers to the 10% value of the volume distribution measured using a laser diffractometer. In other words, for the purposes of the present invention, the X10 value denotes the particle size below which 10% of the quantity of particles is found based on the volume distribution.
Preferably all X90, X50, X10 values hereinbefore and hereinafter are by volume and determined by laser-diffraction method, in particular low angle laser light scattering, i.e. Fraunhofer diffraction. A preferred test is described in the experimental section. The laser diffraction method is sensitive to the volume of a particle and provides a volume-average particle size, which is equivalent to the weight-average particle size if the density is constant. The skilled artesian knows that the results of the particle size distribution determination by one technique can be correlated with that from another technique, for example on an empirical basis by routine experimentation. Alternatively the particle size distribution in the pharmaceutical composition or dosage form can be determined by microscopy, in particular electron microscopy or scanning electron microscopy.
Examples of typical particle size distribution values X90, X50 and X10 for the preferred active pharmaceutical ingredient according to the invention are shown in the table below.
3. Particle Size Distribution Measurement by Laser Diffraction
Particle size distribution measurement is performed for example via light scattering or laser diffraction technique. To determine the particle size the powder is fed into a laser diffraction spectrometer for example by means of a dispersing unit. The test method is described below in detail:
Equipment: Laser Diffraction Spectrometer Sympatec HELOS Particle Sizer.
Lens: R31 (0.5/0.9 μm-175 μm) Sample Dispersing Unit: Dry disperser RODOS/M
Feed Velocity: 60.00 mm/s Primary pressure: 2.00 bar Injector depression: maximize (mbar)2 Reference Measurement: 10 seconds Cycle Time: 100 msec Trigger Conditions: Start 0.0 seconds after optical concentration ≥1% valid always Stop after 5.0 seconds optical concentration ≤1% or after 30 seconds real time Optical Concentration: Approximately range 3-12%
Number of measurements: 2 (duplicate)
The instrument is set up according to the manufacturer's recommendation and using the manufacturer provided software. The sample container is thoroughly mixed and tumbled prior to removing a portion of the sample to ensure that a representative sample is tested. Duplicate samples are prepared by using a spatula to transfer approximately 100 mg of a sample into the ASPIROS glass vials and cap the vials. The capped cials are placed into the feeder.

The conditions of data set [2]: in vivo; cited from earlier work.
The conditions of data set [3]: metformin on its own, in the diabetic; cited from earlier work.
Where [4] appears, read: listed as Active substance Batch 1.
Where [5] appears, read: listed as Active substance Batch 2.

As to “1-chloro-4-(β-D-glucopyranos-1-yl)-2-[4-((S)-tetrahydrofuran-3-yloxy)-benzyl]-benzene [compound (I.9)]”, in data set [1] (setting [4]), the “X10 (10% value of the volume distribution, particle size)” value turned out to be 1.8 μm; the “X50 (50% value, median, of the volume distribution, particle size)” value was 18.9 μm; the “X90 (90% value of the volume distribution, particle size)” value turned out to be 45.3 μm. Also, in data set [1] (setting [5]), the “X10 (10% value of the volume distribution, particle size)” value stood at 1.7 μm; the “X50 (50% value, median, of the volume distribution, particle size)” value came out at 12.1 μm; the “X90 (90% value of the volume distribution, particle size)” value came to 25.9 μm.
As to `CC#CCn1c(N2CCC[C@@H](N)C2)nc2c1c(=O)n(Cc1nc(C)c3ccccc3n1)c(=O)n2C` [linagliptin], the route of excretion result in data set [2] was “primarily excreted by bile and the gut”.
Regarding `CN(C)C(=N)N=C(N)N` [metformin], in data set [3], the “average improvement in the HbA1c value” is on record as 1.0-1.5%.

(Values after patent publication US20220096505A1, “PHARMACEUTICAL COMPOSITION, METHODS FOR TREATING AND USES THEREOF” (Boehringer Ingelheim International GmbH, priority 2011, published 2022).)
